Measured values: PMC6167311, “Structure of the NDH-2 – HQNO inhibited complex provides molecular insight into quinone-binding site inhibitors” (Biochimica et Biophysica Acta, 2018)

What was measured:
Assay type in all cases: biochemical
[1] = molecular target: T1, NDH-2 (type II NADH:quinone oxidoreductase) (Caldalkalibacillus thermarum, UniProt F5L3B8); assay: co-crystal structure at […] Å; IC50 in NADH:menadione oxidoreduction assay ([…] menadione) with purified enzyme
T1 construct: gene CathTA2_0279
T1 sequence (F5L3B8 entry or part of it): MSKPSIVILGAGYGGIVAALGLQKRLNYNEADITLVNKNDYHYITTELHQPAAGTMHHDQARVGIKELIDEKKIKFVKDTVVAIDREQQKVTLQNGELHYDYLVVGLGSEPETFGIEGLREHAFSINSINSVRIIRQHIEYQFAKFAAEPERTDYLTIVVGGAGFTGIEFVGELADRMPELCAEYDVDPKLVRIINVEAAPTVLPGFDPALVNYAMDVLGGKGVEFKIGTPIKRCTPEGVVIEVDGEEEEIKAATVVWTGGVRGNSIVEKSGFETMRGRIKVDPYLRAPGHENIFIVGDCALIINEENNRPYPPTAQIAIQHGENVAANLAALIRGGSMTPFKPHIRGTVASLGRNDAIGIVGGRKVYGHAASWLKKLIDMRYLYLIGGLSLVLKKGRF

[2] = molecular target: T2, NDH-2 (type II NADH:quinone oxidoreductase) (Caldalkalibacillus thermarum, UniProt F5L3B8, I379E); assay: NADH:menadione oxidoreduction assay, […] menadione, […] NADH
T2 construct: gene CathTA2_0279
T2 sequence (F5L3B8 entry or part of it I379E): as the sequence (F5L3B8 entry or part of it) above

[3] = molecular target: T1, NDH-2 (type II NADH:quinone oxidoreductase); assay: NADH:menadione oxidoreduction turnover of purified enzyme ([…] s^−[…] at […] MD)

Compound | IC50 [1] [µM] | IC50 [2] [µM] | NADH:menadione oxidoreduction turnover of purified enzyme (959.3 s^-1 at 400 μM) [3] [s⁻¹]
CCCCCCCc1cc(O)c2ccccc2[n+]1[O-] [compound 1, 2-heptyl-4-hydroxyquinoline-N-oxide] | 7.3 ± 1.2 | 54.3 ± 1.2 | –
CC1=CC(=O)c2ccccc2C1=O [menadione] | – | – | 959.3
